The source of these data is patent US20240390471A1, “COMPOUNDS AND ADJUVANT FORMULATIONS USEFUL IN PNEUMOCOCCAL VACCINES” (Merck Sharp & Dohme LLC, priority 2023, published 2024).

One test has as its target T1, human TLR7 (Homo sapiens, UniProt Q9NYK1).
T1 construct: host or cells: HEK-Blue 293 cells expressing human TLR7
T1 sequence (Q9NYK1 27-1049): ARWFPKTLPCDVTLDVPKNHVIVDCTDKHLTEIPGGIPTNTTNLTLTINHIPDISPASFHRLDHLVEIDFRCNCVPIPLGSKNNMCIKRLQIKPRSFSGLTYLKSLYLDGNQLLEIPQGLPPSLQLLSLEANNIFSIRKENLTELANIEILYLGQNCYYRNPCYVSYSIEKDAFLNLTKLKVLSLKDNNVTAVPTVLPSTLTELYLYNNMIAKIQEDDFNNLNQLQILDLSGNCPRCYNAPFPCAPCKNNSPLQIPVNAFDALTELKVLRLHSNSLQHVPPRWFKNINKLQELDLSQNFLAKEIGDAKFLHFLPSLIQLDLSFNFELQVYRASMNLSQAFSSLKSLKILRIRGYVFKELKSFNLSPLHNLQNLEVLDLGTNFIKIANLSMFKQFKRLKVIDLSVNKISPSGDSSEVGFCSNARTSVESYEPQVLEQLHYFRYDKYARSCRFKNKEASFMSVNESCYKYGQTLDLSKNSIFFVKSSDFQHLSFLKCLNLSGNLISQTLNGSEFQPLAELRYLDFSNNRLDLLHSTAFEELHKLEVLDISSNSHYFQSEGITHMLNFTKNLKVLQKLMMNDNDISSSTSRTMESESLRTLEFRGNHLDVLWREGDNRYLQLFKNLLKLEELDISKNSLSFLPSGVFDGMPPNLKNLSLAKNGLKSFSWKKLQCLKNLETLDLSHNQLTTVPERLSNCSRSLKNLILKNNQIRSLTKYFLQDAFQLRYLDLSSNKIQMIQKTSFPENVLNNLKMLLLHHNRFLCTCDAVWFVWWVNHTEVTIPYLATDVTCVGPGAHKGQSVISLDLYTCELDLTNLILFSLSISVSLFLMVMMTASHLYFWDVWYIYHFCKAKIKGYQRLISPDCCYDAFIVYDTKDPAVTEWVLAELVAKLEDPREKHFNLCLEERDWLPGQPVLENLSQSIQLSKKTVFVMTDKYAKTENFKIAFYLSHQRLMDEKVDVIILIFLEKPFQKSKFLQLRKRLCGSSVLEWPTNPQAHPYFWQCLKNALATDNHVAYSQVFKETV
Nature of the test: Cell-based TLR 7/8 assay, HEK-Blue TLR7 cells (SEAP reporter). Conditions: based on Compound concentration only; Compounds formulated as SNEs; read-out: huTLR7 EC50 (converted). Here is the method: (§1) HEK-Blue™ TLR7 and TLR8 cells (InvivoGen) were designed to assess the stimulation of TLR7 and TLR8 by monitoring the activation of NF-κB and AP-1. Compound B-1-SNE samples were diluted 1:2 across an 8-point titration in diluent buffer histidine/PS-20 in a sterile V-bottom plate. 20 μL of samples were transferred to corresponding wells of two flat bottom assay plates. Media was aspirated from HEK-Blue™ human TLR 7 and TLR 8 cells (T-75 flasks) and gently rinsed with pre-warmed (37° C.) DPBS for a total volume of 5 mL/flask. The DPBS was gently removed from the cells and cells were gently manually dislodged and resuspended in 2 mL of DPBS. Cell assay suspensions were then prepared at approximately 2.2×10^5 cells per mL of HEK-Blue™ detection medium (InvivoGen). 180 μL of cell suspension in detection medium was added to each well of the two flat bottom assay plates containing the diluted Compound B-1-SNE samples for a final dilution of sample equaling 1:10 (180 μL of cell suspension in detection medium and 20 μL of sample). The cells were then incubated at 37° C. in 5% CO2 for 20 hrs. The reporter gene, NF-Kb, induces the production of secreted embryonic alkaline phosphatase (SEAP) when stimulated and can be monitored using the vendor supplied SEAP detection kit. SEAP colorimetric changes were read at an absorbance of 640 nm using a SpectroMax Stakmax plate reader. […] EC50 values were calculated based on total Compound B-1-SNE concentration using GraphPad Prism Software and analyzed using agonist vs. response variable slope (four parameters) least squares fit.
(§2) Further to the description in Example 10, a cell-based activation system was used to assess activity of the Compound-formulated nanoemulsion systems, prepared as described in examples, supra. HEK-Blue™ TLR7 and TLR8 cells (InvivoGen) were designed to assess the stimulation of TLR7 and TLR8 by monitoring the activation of NF-κB and AP-1. Compound-SNE samples were diluted 1:2 across an 8-point titration in diluent buffer histidine/PS-20 in a sterile V-bottom plate. 20 μL of samples were transferred to corresponding wells of two flat bottom assay plates. Media was aspirated from HEK-Blue™ human TLR 7 and TLR 8 cells (T-75 flasks) and gently rinsed with pre-warmed (37° C.) DPBS for a total volume of 5 mL/flask. The DPBS was gently removed from the cells and cells were gently manually dislodged and resuspended in 2 mL of DPBS. Cell assay suspensions were then prepared at approximately 2.2×10^5 cells per mL of HEK-Blue™ detection medium (InvivoGen). 180 μL of cell suspension in detection medium was added to each well of the two flat bottom assay plates containing the diluted Compound-SNE samples for a final dilution of sample equaling 1:10 (180 μL of cell suspension in detection medium and 20 μL of sample). The cells were then incubated at 37° C. in 5% CO2 for 20 hrs. The reporter gene, NF-Kb, induces the production of secreted embryonic alkaline phosphatase (SLAP) when stimulated and can be monitored using the vendor supplied SLAP detection kit. SLAP colorimetric changes were read at an absorbance of 640 nm using a SpectroMax Stakmax plate reader. EC50s were calculated based on Compound concentration only, not total Compound-SNE concentration (Table 6) using GraphPad Prism Software and analyzed using agonist vs. response variable slope (four parameters) least squares fit.

A further test deals with T2, human TLR8 (Homo sapiens, UniProt Q9NR97).
T2 construct: host or cells: HEK-Blue 293 cells expressing human TLR8
T2 sequence (Q9NR97 27-1041): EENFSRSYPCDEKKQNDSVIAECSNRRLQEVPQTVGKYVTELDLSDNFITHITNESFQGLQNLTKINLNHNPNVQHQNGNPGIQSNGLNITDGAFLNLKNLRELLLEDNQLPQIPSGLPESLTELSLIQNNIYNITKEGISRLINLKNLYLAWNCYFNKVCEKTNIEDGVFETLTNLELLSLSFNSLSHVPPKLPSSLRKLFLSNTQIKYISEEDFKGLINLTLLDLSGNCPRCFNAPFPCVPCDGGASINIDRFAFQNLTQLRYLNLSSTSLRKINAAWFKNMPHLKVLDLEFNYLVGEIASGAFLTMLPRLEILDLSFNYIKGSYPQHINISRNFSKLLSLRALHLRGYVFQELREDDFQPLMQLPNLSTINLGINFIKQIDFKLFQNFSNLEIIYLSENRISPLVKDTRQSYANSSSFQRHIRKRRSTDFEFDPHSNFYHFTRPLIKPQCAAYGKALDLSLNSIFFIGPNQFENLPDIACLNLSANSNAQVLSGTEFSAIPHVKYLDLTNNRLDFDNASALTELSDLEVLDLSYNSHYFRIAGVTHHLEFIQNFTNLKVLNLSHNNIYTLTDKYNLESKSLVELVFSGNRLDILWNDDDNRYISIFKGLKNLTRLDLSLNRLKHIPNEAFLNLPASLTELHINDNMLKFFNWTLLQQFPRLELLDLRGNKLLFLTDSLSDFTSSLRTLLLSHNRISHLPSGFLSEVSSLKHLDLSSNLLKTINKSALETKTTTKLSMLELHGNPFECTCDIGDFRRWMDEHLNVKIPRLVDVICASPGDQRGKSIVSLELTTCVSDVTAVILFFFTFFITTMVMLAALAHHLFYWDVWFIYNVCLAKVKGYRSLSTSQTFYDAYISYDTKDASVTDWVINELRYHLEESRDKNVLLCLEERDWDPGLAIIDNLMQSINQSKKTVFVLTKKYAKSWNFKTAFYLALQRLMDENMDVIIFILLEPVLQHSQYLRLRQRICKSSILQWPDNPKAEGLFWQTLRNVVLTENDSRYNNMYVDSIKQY
As to the kind of experiment: Cell-based TLR 7/8 assay, HEK-Blue TLR8 cells (SEAP reporter). To be noted: based on Compound concentration only; Compounds formulated as SNEs; read-out: huTLR8 EC50 (converted). Here is the method: as §1, §2

As a reminder, the EC50 is the concentration at which the effect is half-maximal. Turning to `CCCCCCCCCCCCCCCCCC(=O)NCCCCC(=O)N1CCN(c2cc(OC)c(Cn3cc4nc(N)nc(NCCCC)c4n3)c(OC)c2)CC1` [Compound A-1, N-(5-(4-(4-((5-amino-7-(butylamino)-2H-pyrazolo[4,3-d]pyrimidin-2-yl)methyl)-3,5-dimethoxyphenyl)piperazin-1-yl)-5-oxopentyl)stearamide], the EC50 is 14900 nM on human TLR7 and 5370 nM on human TLR8.
The matching figures for `CCCCCCCCCCCCCCCCCC(=O)NCCCCC(=O)N1CCN(c2cc(OC)c(Cn3cc4nc(N)nc(N[C@H](CO)CCC)c4n3)c(OC)c2)CC1` [Compound A-2, (S)—N-(5-(4-(4-((5-amino-7-((1-hydroxypentan-2-yl)amino)-2H-pyrazolo[4,3-d]pyrimidin-2-yl)methyl)-3,5-dimethoxyphenyl)piperazin-1-yl)-5-oxopentyl)stearamide]: 7530 nM and 454 nM.
In the same order, the values of `CCCCCCCCCCCCCCCCCC(=O)NCCCCC(=O)N1CCN(c2ccc(Cn3cc4nc(N)nc(NCCCC)c4n3)c(OC)c2)CC1` [Compound B-1, N-(5-(4-(4-((5-amino-7-(butylamino)-2H-pyrazolo[4,3-d]pyrimidin-2-yl)methyl)-3-methoxyphenyl)piperazin-1-yl)-5-oxopentyl)stearamide] are 837 nM and 554 nM.
With `CCCCCCCCCCCCCC(=O)NCCCCC(=O)N1CCN(c2ccc(Cn3cc4nc(N)nc(NCCCC)c4n3)c(OC)c2)CC1` [Compound B-2, N-(5-(4-(4-((5-amino-7-(butylamino)-2H-pyrazolo[4,3-d]pyrimidin-2-yl)methyl)-3-methoxyphenyl)piperazin-1-yl)-5-oxopentyl)tetradecanamide], the half-maximal effective concentration (EC50) on human TLR7 is 208 nM; on human TLR8, 306 nM.
The matching figures for `CCCCCCCC/C=C\CCCCCCCC(=O)NCCCCC(=O)N1CCN(c2ccc(Cn3cc4nc(N)nc(NCCCC)c4n3)c(OC)c2)CC1` [Compound B-3, N-(5-(4-(4-((5-amino-7-(butylamino)-2H-pyrazolo[4,3-d]pyrimidin-2-yl)methyl)-3-methoxyphenyl)piperazin-1-yl)-5-oxopentyl)oleamide]: 155 nM and 129 nM.
In the same order, the values of `CCCCC/C=C\C/C=C\CCCCCCCC(=O)NCCCCC(=O)N1CCN(c2ccc(Cn3cc4nc(N)nc(NCCCC)c4n3)c(OC)c2)CC1` [Compound B-4, (9Z,12Z)—N-(5-(4-(4-((5-amino-7-(butylamino)-2H-pyrazolo[4,3-d]pyrimidin-2-yl)methyl)-3-methoxyphenyl)piperazin-1-yl)-5-oxopentyl)octadeca-9,12-dienamide] are 389 nM and 389 nM.
Regarding `CCCCCCCCCCCCCCCCCC(=O)NCCCCC(=O)N1CCCN(c2ccc(Cn3cc4nc(N)nc(NCCCC)c4n3)c(OC)c2)CC1` [Compound B-5, N-(5-(4-(4-((5-amino-7-(butylamino)-2H-pyrazolo[4,3-d]pyrimidin-2-yl)methyl)-3-methoxyphenyl)-1,4-diazepan-1-yl)-5-oxopentyl)stearamide], the concentration giving a half-maximal response (EC50) at human TLR7 is 13400 nM; on human TLR8, 4210 nM.
The matching figures for `CCCCCCCCCCCCCCCCCC(=O)NCCCCC(=O)N1CCC(c2ccc(Cn3cc4nc(N)nc(NCCCC)c4n3)c(OC)c2)CC1` [Compound B-6, N-(5-(4-(4-((5-amino-7-(butylamino)-2H-pyrazolo[4,3-d]pyrimidin-2-yl)methyl)-3-methoxyphenyl)piperidin-1-yl)-5-oxopentyl)stearamide]: 4190 nM and 2590 nM.
For the compound `CCCCCCCCCCCCCCCCCC(=O)NCCCCC(=O)N1CC(c2ccc(Cn3cc4nc(N)nc(NCCCC)c4n3)c(OC)c2)C1` [Compound B-7, N-(5-(3-(4-((5-amino-7-(butylamino)-2H-pyrazolo[4,3-d]pyrimidin-2-yl)methyl)-3-methoxyphenyl)azetidin-1-yl)-5-oxopentyl)stearamide], the 50% effective concentration (EC50) on human TLR7 was 8430 nM; on human TLR8, 3390 nM.
The matching figures for `CCCCCCCCCCCCCCCCCC(=O)NCCCNC(=O)C1CCN(c2ccc(Cn3cc4nc(N)nc(NCCCC)c4n3)c(OC)c2)CC1` [Compound B-8, 1-(4-((5-amino-7-(butylamino)-2H-pyrazolo[4,3-d]pyrimidin-2-yl)methyl)-3-methoxyphenyl)-N-(3-stearamidopropyl)piperidine-4-carboxamide]: 64700 nM and 54000 nM.
